Measured values reported in paper PMC7615677 (Science translational medicine, 2023).
“Also recorded” adds a separate entry of the source. Read-outs that look alike come from different tables or passages of the source.

How the values were obtained:
[1] = target: T1, human cytochrome bc1 complex (Homo sapiens, UniProt P00156); test: Human complex III inhibition assay; format: biochemical
T1 construct: Preparation of mitochondria from a human cell line (THP-1); endogenous in cells; host or cells: THP-1 (human) mitochondria
Protocol: Preparation of mitochondria from a human cell line (THP-1) was performed following published procedure ([21]). The protocol for the assay has been described in ([22]).

[2] = test system: BALB/c 3T3 mouse fibroblasts; test: In vitro 3T3 Neutral Red Uptake (NRU) phototoxicity assay; format: cell-based; conditions: 3T3 NRU
Protocol: Extinction coefficients were 16131 and 8507 L mol^-1 cm^-1, respectively. An in vitro 3T3 Neutral Red Uptake (NRU) phototoxicity assay was then conducted using a 96-well cytotoxicity-based assay that utilizes normal BALB/c 3T3 mouse fibroblasts to measure the concentration-dependent reduction in neutral red uptake by the cells after exposure to test material either in the presence or absence of UVA light. The assay was performed according to OECD (Test No. 432) test guidance ([42]). Duplicate 96-well monolayers of 3T3 fibroblasts were exposed to serial dilutions of test material. One of the plates was exposed to 5 J/cm2 UVA while the other plate was kept in the dark. To assess viability, the NRU by cells exposed to the test chemical in the presence of UVA exposure was compared to the NRU by cells exposed to the test chemical in the absence of UVA exposure. The Photo-Irritation-Factor (PIF) and Mean Photo Effect (MPE) were calculated.

[3] = Compartmental PK modelling and repeat-dose simulation; parameters: species or system hamsters
Protocol: To support pharmacokinetic/pharmacodynamic (PKPD) analysis, data in mice and hamsters were also analyzed by compartmental modeling using Phoenix WinNonlin (version 8.2; Certara, Princeton, NJ). For each dose level, an extravascular dosing, single compartment disposition model was fit to the combined Day 1/Day 5 repeat dose plasma data. The model was parameterized with a single volume term (V/F), and with first order absorption (K01) and elimination (K10) rate constants. Initial values for the parameter estimates were obtained by fitting of the model to the Day 1 data at the lowest dose level only, and the same initial values were used across the dose range. Experimental data used in model fitting were the mean concentration-time profiles and the average dose administered to each group. The weighting scheme (1/Y2 for mouse and 1/Y for hamster) was selected based on goodness of fit of the peak region of the experimental profiles. Parameter estimates obtained through fitting were used to simulate full repeat-dose plasma concentration-time profiles with both once-daily and twice-daily (dosing at […]) administration at each dose level and treatment duration used in the efficacy studies.

[4] = Seahorse mitochondrial stress test; format: cell-based; conditions: human, HepG2 cells; read-out: OCR Basal AC50
Protocol: (§1) Seahorse® 96 well plates were seeded with HepG2 cells and incubated overnight (37°C, 5% CO2). The media in all plate wells was then replaced with Seahorse® assay media and the plates were incubated (37°C, CO2 free) for a further 1 hour before placing in the Seahorse® XFe96 analyser (Agilent Technologies Inc, USA). […] OCR and ECAR were measured for 45 minutes before the sequential addition of oligomycin (ATP synthase inhibitor), FCCP (carbonyl cyanide 4-(trifluoromethoxy) phenylhydrazone, protonophore uncoupler) and rotenone plus antimycin A (Electron transport chain Complex I and III inhibitors respectively). Multiple measurements of OCR and ECAR were made following each of these additions.
(§2) Mean ± standard deviation of the compound ratio data were plotted vs log concentration and curves fitted (as described in [24]) and the minimum effective concentration (MEC) determined using limits based on the DMSO vehicle mean ± 2 standard deviations or, where these limits were deemed too narrow, the DMSO vehicle mean ± minimum limits set for each parameter. The AC50 was calculated using the curve and historical maximum (activation) and minimum (inhibition) responses and is defined as the concentration at which 50% of the maximum or minimum effect is observed, provided a clear concentration response relationship is seen.

[5] = test system: HepG2 cells; test: Seahorse mitochondrial stress test; format: cell-based
Protocol: as §1, §2

[6] = test system: T. b. rhodesiense (bloodstream form); test: In vitro activity against other kinetoplastid parasites; format: cell-based; conditions: Trypanosoma brucei, one range given for T. brucei brucei and T. b. rhodesiense
[7] = hamster, plasma, po, Hamsters, 12.5 mg/kg, fitted
[8] = hamster, plasma, po, Hamsters, 25 mg/kg, fitted
[9] = hamster, plasma, po, Hamsters, 50 mg/kg, fitted
[10] = hamsters, 3.125 mg/kg bid, 5 days, simulated
[11] = hamsters, 12.5 mg/kg bid, 5 days, simulated
[12] = hamsters, 12.5 mg/kg qd, 5 days, simulated
[13] = hamsters, 25 mg/kg qd, 5 days, simulated
[14] = hamsters, 50 mg/kg qd, 5 days, simulated

In the case of `Cc1[nH]c2nc(N)nc(C)c2c1-c1ccc(C#N)c2c1OCO2` [DNDI-6174], the inhibition at 200 µM [1] is reported as under 20%, the “risk of being phototoxic, in words” value [2] is reported as “discarded” and the K01 ([3]; Hamsters, 12.5 mg/kg, fitted) is reported as 0.321 h⁻¹. For the same compound, the K10 ([3]; Hamsters, 12.5 mg/kg, fitted) was 0.336 h⁻¹, the V/F ([3]; Hamsters, 12.5 mg/kg, fitted) was 1.57 L/kg and the K01 ([3]; Hamsters, 25 mg/kg, fitted) was 0.298 h⁻¹. The K10 ([3]; Hamsters, 25 mg/kg, fitted) was 0.295 h⁻¹, the V/F ([3]; Hamsters, 25 mg/kg, fitted) was 1.75 L/kg and the K01 ([3]; Hamsters, 50 mg/kg, fitted) was 0.660 h⁻¹. It also gave a K10 ([3]; Hamsters, 50 mg/kg, fitted) of 0.184 h⁻¹, a V/F ([3]; Hamsters, 50 mg/kg, fitted) of 1.83 L/kg and a Cmax ([3]; hamster, plasma, po, 3.125 mg/kg, hamsters, 3.125 mg/kg bid, 5 days, simulated) of 341 ng/mL. The Cmax ([3]; hamster, plasma, po, 12.5 mg/kg, Hamsters, fitted) was 2850 ng/mL, the Cmax ([3]; hamster, plasma, po, 12.5 mg/kg, hamsters, 12.5 mg/kg bid, 5 days, simulated) was 3690 ng/mL and the AUC ([3]; hamster, plasma, po, 12.5 mg/kg, hamsters, 12.5 mg/kg bid, 5 days, simulated, read-out: AUC24 ss) was 47600 ng·h/mL. For the same compound, the AUC ([3]; hamster, plasma, po, 12.5 mg/kg, hamsters, 12.5 mg/kg bid, 5 days, simulated, read-out: Cum AUC) was 238000 ng·h/mL, the Cmax ([3]; hamster, plasma, po, 12.5 mg/kg, hamsters, 12.5 mg/kg qd, 5 days, simulated) was 2880 ng/mL and the AUC ([3]; hamster, plasma, po, 12.5 mg/kg, hamsters, 12.5 mg/kg qd, 5 days, simulated, read-out: AUC24 ss) was 23800 ng·h/mL. It also gave an AUC ([3]; hamster, plasma, po, 12.5 mg/kg, hamsters, 12.5 mg/kg qd, 5 days, simulated, read-out: Cum AUC) of 119000 ng·h/mL, a Cmax ([3]; hamster, plasma, po, 25 mg/kg, Hamsters, fitted) of 5280 ng/mL and a Cmax at 5 days ([3]; hamster, plasma, po, 25 mg/kg, hamsters, 25 mg/kg qd, 5 days, simulated) of 5330 ng/mL. For the same compound, the AUC ([3]; hamster, plasma, po, 25 mg/kg, hamsters, 25 mg/kg qd, 5 days, simulated, read-out: AUC24 ss) was 48600 ng·h/mL, the AUC ([3]; hamster, plasma, po, 25 mg/kg, hamsters, 25 mg/kg qd, 5 days, simulated, read-out: Cum AUC) was 243000 ng·h/mL and the Cmax ([3]; hamster, plasma, po, 50 mg/kg, Hamsters, fitted) was 15600 ng/mL. For the same compound, the Cmax ([3]; hamster, plasma, po, 50 mg/kg, hamsters, 50 mg/kg qd, 5 days, simulated) was 17000 ng/mL, the AUC ([3]; hamster, plasma, po, 50 mg/kg, hamsters, 50 mg/kg qd, 5 days, simulated, read-out: AUC24 ss) was 148000 ng·h/mL and the AUC at 5 days ([3]; hamster, plasma, po, 50 mg/kg, hamsters, 50 mg/kg qd, 5 days, simulated, read-out: Cum AUC) was 742000 ng·h/mL. It also gave an AUC(0-inf) [3, 7] of 23600 ng·h/mL, a CL/F [3, 7] of 8.75 mL/min/kg and an AUC(0-inf) [3, 8] of 48400 ng·h/mL. It also gave a CL/F [3, 8] of 8.58 mL/min/kg, an AUC(0-inf) [3, 9] of 140000 ng·h/mL and a CL/F [3, 9] of 5.62 mL/min/kg. For the same compound, the “Cmax (unbound)” value [3, 10] was 31 ng/mL, the Cmin [3, 10] was 13 ng/mL and the “Cmin (unbound)” value [3, 10] was 1 ng/mL. The “AUC24 ss (unbound)” value [3, 11] was 4280 ng·h/mL, the Cav ss [3, 11] was 1980 ng/mL and the “Cav ss (unbound)” value [3, 11] was 178 ng/mL. The “Cmax (unbound)” value [3, 11] was 332 ng/mL, the Cmin [3, 11] was 238 ng/mL and the “Cmin (unbound)” value [3, 11] was 21 ng/mL. For the same compound, the “Cum AUC (unbound)” value [3, 11] was 21400 ng·h/mL, the “AUC24 ss (unbound)” value [3, 12] was 2140 ng·h/mL and the Cav ss [3, 12] was 991 ng/mL. For the same compound, the “Cav ss (unbound)” value [3, 12] was 89 ng/mL, the “Cmax (unbound)” value [3, 12] was 259 ng/mL and the Cmin [3, 12] was 23 ng/mL. The “Cmin (unbound)” value [3, 12] was 2 ng/mL, the “Cum AUC (unbound)” value [3, 12] was 10700 ng·h/mL and the “AUC24 ss (unbound)” value [3, 13] was 4370 ng·h/mL. The Cav ss [3, 13] was 2020 ng/mL, the “Cav ss (unbound)” value [3, 13] was 182 ng/mL and the “Cmax (unbound)” value [3, 13] was 480 ng/mL. The Cmin [3, 13] was 83 ng/mL, the “Cmin (unbound)” value [3, 13] was 7 ng/mL and the “Cum AUC (unbound)” value [3, 13] was 21900 ng·h/mL. The “AUC24 ss (unbound)” value [3, 14] was 13400 ng·h/mL, the Cav ss [3, 14] was 6190 ng/mL and the “Cav ss (unbound)” value [3, 14] was 557 ng/mL. For the same compound, the “Cmax (unbound)” value [3, 14] was 1530 ng/mL, the Cmin [3, 14] was 463 ng/mL and the “Cmin (unbound)” value [3, 14] was 42 ng/mL. The “Cum AUC (unbound)” value [3, 14] was 66800 ng·h/mL, the AC50 at 45 min [4] was over 200 µM and the “OCR Basal minimum effect concentration (MEC)” value [5] was 95.6 µM. The “Reserve Capacity, ECAR, Maximum Capacity, ATP production, in words” value [5] was “No significant response observed on reserve; also recorded: no changes in Reserve Capacity, ECAR, Maximum Capacity or ATP production”, the “margin of Seahorse OCR MEC over free concentration at predicted human therapeutic plasma Cmax” value [5] was “approximately 187 fold” and the “ECAR, in words” value ([5]; 200 μM) was “transient increase”. For the same compound, the “OCR Basal maximum reduction” value ([5]; 200 μM) was 14% and the EC50 [6] was 5 to 20 µM.
